MIC data for 3 compounds are collected here from DBAASP.

Converted amounts (≈) assume the structure as drawn. A value given as a limit tells only on which side of the number the result lay.

Some test systems named below: Vibrio cholerae PL91; Klebsiella pneumoniae; Streptococcus pneumoniae; Citrobacter sp.; Staphylococcus aureus; Enterobacter cloacae; Escherichia coli; Escherichia coli K-12.
Holding throughout (experiment): ≥ marks a high value that may be exact or a test limit, other limits are often not marked, values filed in µg/mL are converted to µM
Assay [1] has as its system Bacillus cereus NCLM 2156.
Assay [2] concerns Escherichia coli NCLM 2064.
Assay [3] deals with Pseudomonas aeruginosa ATCC 10145.
In assay [4] the test system is Staphylococcus aureus ATCC 25923.
Assay [5] relates to Escherichia coli ATCC 25922.
The subject of assay [6] is Pseudomonas aeruginosa ATCC 15442.
Assay [7] has as its system Acinetobacter baumannii ATCC 15308.
In assay [8] the test system is Klebsiella pneumoniae Q14-0285.
Assay [9] concerns Campylobacter jejuni NCTC 11351.
Assay [10] has as its system Pseudomonas aeruginosa Q14-0208.
Assay [11] concerns Staphylococcus aureus Q14-0320.
The test system of assay [12] is Pseudomonas aeruginosa PAO1.
Assay [13] deals with Pseudomonas aeruginosa ATCC 27853.
The test system of assay [14] is Staphylococcus aureus NCTC 12493.
The test system of assay [15] is Staphylococcus aureus ATCC 29213.
For assay [16], the system named is Klebsiella pneumoniae NCTC 13442.
In assay [17] the test system is Campylobacter jejuni ATCC 33292.
Assay [18] deals with Acinetobacter baumannii Q12-0809.
Assay [19] deals with Acinetobacter baumannii Q12-0867.
Assay [20] relates to Enterococcus faecalis JH-2-2.
In assay [21] the test system is Staphylococcus aureus MRSA-15.
Assay [22] has as its system Pseudomonas aeruginosa Q12-0535.
In assay [23] the test system is Klebsiella pneumoniae Q14-0095.
The test system of assay [24] is Campylobacter jejuni NCTC 11161.
For assay [25], the system named is Klebsiella pneumoniae ATCC 700603.
Assay [26] relates to Staphylococcus aureus USA 300.
Assay [27] concerns Acinetobacter baumannii Q13-0717.
Assay [28] relates to Salmonella typhimurium SL1344.
Assay [29] concerns Staphylococcus aureus RN4220.
The test system of assay [30] is Staphylococcus aureus ATCC 33591.
Assay [31] has as its system Pseudomonas aeruginosa Q14-0890.
Assay [32] deals with Listeria monocytogenes NCTC 11994.

As for `CC[C@H](C)[C@H](NC(=O)[C@H](CCCCN)NC(=O)[C@@H](NC(=O)[C@H](CC(C)C)NC(=O)[C@@H]1CCCN1C(=O)CNC(=O)[C@H](Cc1ccccc1)NC(=O)[C@@H](N)Cc1ccccc1)[C@@H](C)CC)C(=O)N[C@@H](C)C(=O)N[C@H](C(=O)NCC(=O)N[C@H](C(=O)N[C@@H](CC(C)C)C(=O)N1CCC[C@H]1C(=O)N[C@@H](CC(N)=O)C(=O)N[C@@H](CC(C)C)C(=O)N[C@H](C(=O)N[C@H]1CSSC[C@@H](C(=O)O)NC(=O)[C@H](CCCCN)NC(=O)CNC(=O)[C@H](CC(C)C)NC(=O)[C@H](C)NC(=O)[C@H](CCCCN)NC1=O)[C@@H](C)CC)C(C)C)[C@@H](C)O` [FFGPLIKIATGVLPNLICKALGKC], the MIC (usually the lowest concentration found to suppress growth) in assay [1] was at least 39.7 µM; in assay [2], 11.9 µM (≈ 30 µg/mL); against Vibrio cholerae PL91, at least 59.6 µM; in assay [3], at least 59.6 µM; in assay [4], over 59.6 µM.
Turning to `CC[C@H](C)[C@H](NC(=O)[C@H](CC(C)C)NC(=O)CNC(=O)CNC(=O)[C@H](CC(C)C)NC(=O)[C@@H](N)Cc1ccccc1)C(=O)N[C@@H](CCCCN)C(=O)N[C@@H](CCCCN)C(=O)N[C@@H](Cc1c[nH]c2ccccc12)C(=O)N1CCC[C@H]1C(=O)N[C@@H](Cc1c[nH]c2ccccc12)C(=O)N[C@@H](Cc1c[nH]c2ccccc12)C(=O)N1CCC[C@H]1C(=O)N[C@@H](Cc1c[nH]c2ccccc12)C(=O)N[C@@H](CCCN=C(N)N)C(=O)N[C@@H](CCCN=C(N)N)C(N)=O` [FLGGLIKKWPWWPWRR], the MIC was over 118 µM in the assay on Klebsiella pneumoniae; 3.67 µM (≈ 7.81 µg/mL) in [5]; 3.67 µM (≈ 7.81 µg/mL) against Streptococcus pneumoniae; at least 118 µM in the assay with Citrobacter sp.; 3.67 µM (≈ 7.81 µg/mL) in the assay on Staphylococcus aureus; at least 118 µM against Enterobacter cloacae. Also, the MIC in [6] came to 14.7 µM (≈ 31.2 µg/mL); in [4] it was 3.67 µM (≈ 7.81 µg/mL); in [7], 14.7 µM (≈ 31.2 µg/mL).
Consider `CC(C)C[C@H](NC(=O)[C@H](CS)NC(=O)[C@H](CC(C)C)NC(=O)[C@H](CCCN=C(N)N)NC(=O)[C@H](Cc1c[nH]c2ccccc12)NC(=O)[C@@H]1CCCN1C(=O)[C@@H](NC(=O)[C@H](CCCN=C(N)N)NC(=O)[C@H](CCCN=C(N)N)NC(=O)[C@H](Cc1ccccc1)NC(=O)[C@H](CCCN=C(N)N)NC(=O)[C@H](C)NC(=O)[C@@H](NC(=O)[C@H](Cc1ccccc1)NC(=O)[C@H](CCCN=C(N)N)NC(=O)[C@@H](N)CC(N)=O)[C@@H](C)O)[C@@H](C)O)C(=O)N[C@@H](CCC(N)=O)C(=O)N[C@@H](Cc1ccccc1)C(=O)N[C@@H](CCCN=C(N)N)C(=O)N[C@@H](CCC(N)=O)C(=O)O` [NRFTARFRRTPWRLCLQFRQ], for which the MIC in [8] was 24.1 µM (≈ 64 µg/mL); in assay [9], at least 48.2 µM; in assay [10], 12.1 µM (≈ 32 µg/mL); in [11], at least 48.2 µM; in assay [12], 12.1 µM (≈ 32 µg/mL); in assay [13], 48.2 µM (≈ 128 µg/mL). Also, the MIC in assay [14] amounted to 24.1 µM (≈ 64 µg/mL); in assay [15], 48.2 µM (≈ 128 µg/mL); in assay [16], 12.1 µM (≈ 32 µg/mL); in assay [17], 24.1 µM (≈ 64 µg/mL); in [18] it was 6.03 µM (≈ 16 µg/mL); in the assay on Escherichia coli, 48.2 µM (≈ 128 µg/mL). Further, the minimum inhibitory concentration (MIC) in [19] is 3.02 µM (≈ 8 µg/mL); in assay [20], 24.1 µM (≈ 64 µg/mL); in [21] it was 12.1 µM (≈ 32 µg/mL); in assay [22], at least 48.2 µM; in assay [23], 12.1 µM (≈ 32 µg/mL); in assay [24], at least 96.5 µM. Moreover, the MIC is 12.1 µM (≈ 32 µg/mL) in assay [25]; 24.1 µM (≈ 64 µg/mL) in [26]; 12.1 µM (≈ 32 µg/mL) in [27]; 24.1 µM (≈ 64 µg/mL) in assay [28]; 12.1 µM (≈ 32 µg/mL) in assay [29]; 24.1 µM (≈ 64 µg/mL) in assay [30]. For the same compound, the MIC in assay [31] is 6.03 µM (≈ 16 µg/mL); with Escherichia coli K-12, 24.1 µM (≈ 64 µg/mL); in assay [32] it was 12.1 µM (≈ 32 µg/mL).
